From ChEMBL document CHEMBL1201862, “PubChem BioAssay data set” (2004)
Active and inactive are the calls of the source.

Columns and labels:
[1] = molecular target: Serine/threonine-protein kinase pim-1 (Homo sapiens, UniProt P11309); assay type: functional
[2] = molecular target: Cell division cycle 7-related protein kinase (Homo sapiens, UniProt O00311); assay type: functional;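 note: value obtained from a kinome-wide kinase panel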
[3] = molecular target: Homeodomain-interacting protein kinase 2 (Homo sapiens, UniProt Q9H2X6); assay type: functional;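 note: measured within a kinome-wide kinase profiling panel, HIPK2 being one panel member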
Sequence of Homeodomain-interacting protein kinase 2 (Q9H2X6 whole entry): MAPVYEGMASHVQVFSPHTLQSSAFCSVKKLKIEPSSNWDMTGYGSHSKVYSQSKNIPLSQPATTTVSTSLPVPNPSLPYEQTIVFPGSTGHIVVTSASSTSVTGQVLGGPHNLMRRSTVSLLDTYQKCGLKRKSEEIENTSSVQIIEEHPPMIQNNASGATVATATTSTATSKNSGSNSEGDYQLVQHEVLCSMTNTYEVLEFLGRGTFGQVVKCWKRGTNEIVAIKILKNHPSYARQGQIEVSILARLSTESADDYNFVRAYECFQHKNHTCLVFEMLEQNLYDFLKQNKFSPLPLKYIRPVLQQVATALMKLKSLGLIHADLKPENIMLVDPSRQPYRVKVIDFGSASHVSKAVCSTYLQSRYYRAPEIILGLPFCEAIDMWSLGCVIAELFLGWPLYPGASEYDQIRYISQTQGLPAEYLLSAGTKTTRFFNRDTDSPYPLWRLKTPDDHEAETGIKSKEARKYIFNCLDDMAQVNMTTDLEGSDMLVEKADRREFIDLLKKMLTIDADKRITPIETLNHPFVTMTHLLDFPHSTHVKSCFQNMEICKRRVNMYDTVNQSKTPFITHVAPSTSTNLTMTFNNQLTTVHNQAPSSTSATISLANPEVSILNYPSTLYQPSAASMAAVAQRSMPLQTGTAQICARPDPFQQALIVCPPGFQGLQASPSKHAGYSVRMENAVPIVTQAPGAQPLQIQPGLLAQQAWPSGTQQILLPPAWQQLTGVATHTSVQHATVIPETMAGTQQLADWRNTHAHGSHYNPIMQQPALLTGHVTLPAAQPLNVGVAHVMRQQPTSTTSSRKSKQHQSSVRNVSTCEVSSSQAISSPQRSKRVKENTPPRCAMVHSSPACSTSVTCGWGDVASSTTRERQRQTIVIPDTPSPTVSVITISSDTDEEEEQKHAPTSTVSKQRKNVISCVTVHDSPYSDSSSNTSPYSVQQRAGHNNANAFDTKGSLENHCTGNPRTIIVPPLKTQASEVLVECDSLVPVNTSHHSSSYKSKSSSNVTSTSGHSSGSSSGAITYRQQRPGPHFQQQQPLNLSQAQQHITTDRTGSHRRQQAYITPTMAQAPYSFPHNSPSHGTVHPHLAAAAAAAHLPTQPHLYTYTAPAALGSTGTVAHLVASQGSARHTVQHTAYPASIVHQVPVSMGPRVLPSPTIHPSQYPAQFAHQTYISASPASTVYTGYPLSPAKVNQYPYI

[4] = molecular target: MAP kinase-interacting serine/threonine-protein kinase 2 (Homo sapiens, UniProt Q9HBH9); assay type: functional
Sequence of MAP kinase-interacting serine/threonine-protein kinase 2 (Q9HBH9 whole entry): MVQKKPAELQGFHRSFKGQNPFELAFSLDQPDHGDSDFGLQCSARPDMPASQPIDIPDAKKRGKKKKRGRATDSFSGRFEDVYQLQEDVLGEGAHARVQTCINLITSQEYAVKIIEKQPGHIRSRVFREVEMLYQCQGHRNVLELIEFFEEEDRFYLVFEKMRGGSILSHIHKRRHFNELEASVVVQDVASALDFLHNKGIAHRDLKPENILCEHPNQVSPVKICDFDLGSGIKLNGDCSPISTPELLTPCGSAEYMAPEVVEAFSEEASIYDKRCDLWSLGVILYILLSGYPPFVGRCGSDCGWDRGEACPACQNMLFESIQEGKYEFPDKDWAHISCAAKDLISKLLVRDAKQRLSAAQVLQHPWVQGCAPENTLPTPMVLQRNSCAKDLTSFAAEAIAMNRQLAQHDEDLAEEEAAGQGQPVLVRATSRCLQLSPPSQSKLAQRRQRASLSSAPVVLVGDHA

[5] = molecular target: T1, Interleukin-1 receptor-associated kinase 4 (Homo sapiens, UniProt Q9NWZ3); assay type: functional
T1 sequence (Q9NWZ3 whole entry): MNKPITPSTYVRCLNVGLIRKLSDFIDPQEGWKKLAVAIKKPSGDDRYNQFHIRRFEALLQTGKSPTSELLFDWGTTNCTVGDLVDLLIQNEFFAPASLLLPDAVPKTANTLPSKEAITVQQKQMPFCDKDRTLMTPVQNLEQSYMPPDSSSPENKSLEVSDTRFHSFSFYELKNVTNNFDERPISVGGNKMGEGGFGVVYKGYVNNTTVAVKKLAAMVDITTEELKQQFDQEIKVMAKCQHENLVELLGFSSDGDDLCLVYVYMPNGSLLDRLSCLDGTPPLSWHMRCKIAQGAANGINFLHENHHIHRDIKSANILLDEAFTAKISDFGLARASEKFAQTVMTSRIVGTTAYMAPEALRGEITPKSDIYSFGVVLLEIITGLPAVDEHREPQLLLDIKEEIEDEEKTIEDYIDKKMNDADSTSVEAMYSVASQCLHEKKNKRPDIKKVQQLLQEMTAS

[6] = molecular target: Glycogen synthase kinase-3 beta (Homo sapiens, UniProt P49841); assay type: functional;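 note: value comes from a broad kinome profiling panel, with GSK3B as the panel member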
Sequence of Glycogen synthase kinase-3 beta (P49841 whole entry): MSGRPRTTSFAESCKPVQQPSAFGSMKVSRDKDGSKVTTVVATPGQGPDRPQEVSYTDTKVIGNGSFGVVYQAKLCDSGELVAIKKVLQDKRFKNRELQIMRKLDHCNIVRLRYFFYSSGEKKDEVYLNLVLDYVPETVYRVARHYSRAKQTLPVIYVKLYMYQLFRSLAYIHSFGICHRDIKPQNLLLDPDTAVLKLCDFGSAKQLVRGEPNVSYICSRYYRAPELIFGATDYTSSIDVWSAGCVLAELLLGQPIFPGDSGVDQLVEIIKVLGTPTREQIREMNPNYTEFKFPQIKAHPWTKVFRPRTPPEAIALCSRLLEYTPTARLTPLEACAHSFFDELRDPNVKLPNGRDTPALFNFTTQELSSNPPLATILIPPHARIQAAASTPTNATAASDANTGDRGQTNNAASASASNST

[7] = molecular target: Dual specificity protein kinase CLK4 (Homo sapiens, UniProt Q9HAZ1); assay type: functional
[8] = molecular target: Mitogen-activated protein kinase kinase kinase kinase 4 (Homo sapiens, UniProt O95819); assay type: functional
Sequence of Mitogen-activated protein kinase kinase kinase kinase 4 (O95819 whole entry): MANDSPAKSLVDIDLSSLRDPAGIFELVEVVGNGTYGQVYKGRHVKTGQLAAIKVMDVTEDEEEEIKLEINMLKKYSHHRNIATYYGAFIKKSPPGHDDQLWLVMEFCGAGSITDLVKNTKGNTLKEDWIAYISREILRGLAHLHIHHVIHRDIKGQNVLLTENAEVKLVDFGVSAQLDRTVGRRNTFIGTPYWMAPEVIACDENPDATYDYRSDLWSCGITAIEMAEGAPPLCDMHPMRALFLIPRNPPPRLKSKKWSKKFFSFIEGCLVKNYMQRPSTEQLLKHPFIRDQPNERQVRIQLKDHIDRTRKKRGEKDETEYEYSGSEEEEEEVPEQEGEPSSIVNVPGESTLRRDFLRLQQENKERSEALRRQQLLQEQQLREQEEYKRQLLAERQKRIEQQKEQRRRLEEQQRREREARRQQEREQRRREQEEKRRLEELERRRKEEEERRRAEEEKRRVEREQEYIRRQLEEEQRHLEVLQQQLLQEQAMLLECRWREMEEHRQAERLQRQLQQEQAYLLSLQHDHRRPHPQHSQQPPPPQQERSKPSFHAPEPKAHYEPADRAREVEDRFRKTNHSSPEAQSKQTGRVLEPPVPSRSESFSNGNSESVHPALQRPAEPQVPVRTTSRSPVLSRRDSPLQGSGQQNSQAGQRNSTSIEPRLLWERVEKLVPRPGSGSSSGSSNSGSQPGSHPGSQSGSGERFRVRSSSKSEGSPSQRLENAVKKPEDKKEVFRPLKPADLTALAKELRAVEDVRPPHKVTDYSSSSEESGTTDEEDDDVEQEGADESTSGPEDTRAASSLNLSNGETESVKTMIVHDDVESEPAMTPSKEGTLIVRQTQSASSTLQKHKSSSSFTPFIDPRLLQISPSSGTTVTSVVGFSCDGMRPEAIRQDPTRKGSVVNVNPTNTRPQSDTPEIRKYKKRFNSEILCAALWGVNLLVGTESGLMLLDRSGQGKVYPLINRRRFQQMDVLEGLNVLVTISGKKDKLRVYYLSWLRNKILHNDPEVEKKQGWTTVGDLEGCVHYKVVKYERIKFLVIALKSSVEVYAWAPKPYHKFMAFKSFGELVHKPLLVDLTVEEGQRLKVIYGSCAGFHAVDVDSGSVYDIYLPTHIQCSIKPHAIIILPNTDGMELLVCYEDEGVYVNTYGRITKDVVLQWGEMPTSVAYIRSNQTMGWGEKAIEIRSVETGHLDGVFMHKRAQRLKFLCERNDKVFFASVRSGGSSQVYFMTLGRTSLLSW

[9] = system: Escherichia coli; test: microbe, parasite or virus in culture
[10] = system: Escherichia coli; test: microbe, parasite or virus in culture; remark: listed apart in the source
[11] = molecular target: Delta-type opioid receptor (Homo sapiens, UniProt P41143); test: Counterscreen for agonists of heterodimerization of the mu 1 (OPRM1) and delta 1 (OPRD1) opioid receptors: Luminescence-based cell-based high throughput dose response assay to identify agonists of OPRD1 homodimerization. [Related pubchem assays (depositor defined):AID504326, AID504355, AID504692, AID504904, AID504905]; assay type: functional
Sequence of Delta-type opioid receptor (P41143 whole entry): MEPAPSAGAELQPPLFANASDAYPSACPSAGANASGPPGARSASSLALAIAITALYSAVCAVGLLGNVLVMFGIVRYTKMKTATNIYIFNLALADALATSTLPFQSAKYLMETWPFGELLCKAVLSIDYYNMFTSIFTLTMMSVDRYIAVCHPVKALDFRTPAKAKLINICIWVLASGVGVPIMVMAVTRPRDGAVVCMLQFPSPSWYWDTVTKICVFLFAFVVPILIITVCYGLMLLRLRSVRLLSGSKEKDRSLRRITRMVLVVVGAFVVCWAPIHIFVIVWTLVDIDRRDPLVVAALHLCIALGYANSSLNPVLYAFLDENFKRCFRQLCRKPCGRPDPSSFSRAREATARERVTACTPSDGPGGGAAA

[12] = molecular target: Mu-type opioid receptor (Homo sapiens, UniProt P35372); test: Counterscreen for agonists of heterodimerization of the mu 1 (OPRM1) and delta 1 (OPRD1) opioid receptors: Luminescence-based cell-based high throughput dose response assay to identify agonists of OPRM1 homodimerization.; assay type: functional;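 note: U2OS cells expressing OPRM1 and beta-arrestin as split beta-galactosidase partners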
[13] = molecular target: 5-hydroxytryptamine receptor 5A (Homo sapiens, UniProt P47898); test: Counterscreen for agonists of OPRM1-OPRD1 heterodimerization: luminescence-based cell-based high throughput dose response assay to identify agonists of 5-hydroxytryptamine (serotonin) 5A receptor (HTR5A). [Related pubchem assays (depositor defined):AID504326, AID504355, AID504692, AID504904, AID504905]; assay type: functional
Sequence of 5-hydroxytryptamine receptor 5A (P47898 whole entry): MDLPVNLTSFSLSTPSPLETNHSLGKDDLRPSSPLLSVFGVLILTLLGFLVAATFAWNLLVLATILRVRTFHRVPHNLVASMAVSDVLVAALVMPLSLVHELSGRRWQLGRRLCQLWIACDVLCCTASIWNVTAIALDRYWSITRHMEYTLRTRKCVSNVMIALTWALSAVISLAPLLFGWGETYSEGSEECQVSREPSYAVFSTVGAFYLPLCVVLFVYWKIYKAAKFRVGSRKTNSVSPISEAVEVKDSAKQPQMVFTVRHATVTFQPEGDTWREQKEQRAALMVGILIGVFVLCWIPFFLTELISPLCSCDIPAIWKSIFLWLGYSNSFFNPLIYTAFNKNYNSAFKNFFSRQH

[14] = molecular target: T2, Protein skinhead-1 (Caenorhabditis elegans, UniProt P34707); assay type: functional
T2 sequence (P34707 whole entry): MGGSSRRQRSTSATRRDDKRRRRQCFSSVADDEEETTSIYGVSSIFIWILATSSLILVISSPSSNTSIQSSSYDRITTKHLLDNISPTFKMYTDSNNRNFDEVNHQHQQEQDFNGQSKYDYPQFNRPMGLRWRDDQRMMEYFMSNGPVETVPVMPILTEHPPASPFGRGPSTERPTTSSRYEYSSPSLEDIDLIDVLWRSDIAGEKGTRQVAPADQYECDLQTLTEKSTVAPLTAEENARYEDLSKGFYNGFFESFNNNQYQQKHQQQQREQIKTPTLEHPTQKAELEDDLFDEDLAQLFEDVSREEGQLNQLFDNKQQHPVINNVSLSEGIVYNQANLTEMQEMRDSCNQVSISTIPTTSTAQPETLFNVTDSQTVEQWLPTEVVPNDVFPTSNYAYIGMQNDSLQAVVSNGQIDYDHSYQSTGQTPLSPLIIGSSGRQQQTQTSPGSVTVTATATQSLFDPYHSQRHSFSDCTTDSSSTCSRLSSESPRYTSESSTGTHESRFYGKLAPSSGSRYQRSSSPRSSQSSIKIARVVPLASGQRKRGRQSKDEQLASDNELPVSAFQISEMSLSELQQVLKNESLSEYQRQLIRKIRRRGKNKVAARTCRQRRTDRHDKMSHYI

[15] = molecular target: T3, Aryl hydrocarbon receptor (Homo sapiens, UniProt P35869); details: Potency;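 note: confirmatory quantitative high-throughput screen measuring activation of the AhR signaling pathway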
T3 sequence (P35869 whole entry): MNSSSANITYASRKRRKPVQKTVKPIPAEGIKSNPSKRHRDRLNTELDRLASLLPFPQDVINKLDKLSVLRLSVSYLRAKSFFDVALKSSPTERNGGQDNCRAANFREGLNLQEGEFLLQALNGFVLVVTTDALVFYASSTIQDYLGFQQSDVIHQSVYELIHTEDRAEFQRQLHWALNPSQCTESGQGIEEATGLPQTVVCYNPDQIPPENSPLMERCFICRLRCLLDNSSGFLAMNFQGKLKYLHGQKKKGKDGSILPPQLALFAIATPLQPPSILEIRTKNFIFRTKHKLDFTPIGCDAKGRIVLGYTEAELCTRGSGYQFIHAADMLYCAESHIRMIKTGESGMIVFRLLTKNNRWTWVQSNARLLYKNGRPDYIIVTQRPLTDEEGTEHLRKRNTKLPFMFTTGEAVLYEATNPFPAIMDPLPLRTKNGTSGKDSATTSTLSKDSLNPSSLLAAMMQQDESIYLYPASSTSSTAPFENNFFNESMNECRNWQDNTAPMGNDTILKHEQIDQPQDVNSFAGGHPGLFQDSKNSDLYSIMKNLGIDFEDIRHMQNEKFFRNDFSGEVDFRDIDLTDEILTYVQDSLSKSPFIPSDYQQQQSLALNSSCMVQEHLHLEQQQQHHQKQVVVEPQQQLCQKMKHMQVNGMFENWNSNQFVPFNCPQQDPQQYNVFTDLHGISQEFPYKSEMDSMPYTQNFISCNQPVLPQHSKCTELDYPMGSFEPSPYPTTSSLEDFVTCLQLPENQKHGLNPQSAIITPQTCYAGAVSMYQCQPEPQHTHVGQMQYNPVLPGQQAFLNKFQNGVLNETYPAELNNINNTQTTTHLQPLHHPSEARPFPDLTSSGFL

[16] = system: HeLa; test: HeLa cell cytotoxicity, dose response, cytotoxicity control for MITF activator project, CellTiter-Glo luminescence, cherry-pick samples (AID 540259); assay type: functional, cell-based; details: Homo sapiens
[17] = system: H4; test: Luminescence Cell-Based Dose Response HTS to Identify Activators of 5'UTR Stem-Loop Driven Prion Protein mRNA Translation in H4 Neuroglioblastoma Cells. [Related pubchem assays: 1829 (Project Summary), 1814 (Primary HTS)]; assay type: functional; details: Homo sapiens
[18] = molecular target: Mitochondrial peptide methionine sulfoxide reductase (Bos taurus, UniProt P54149); assay type: functional;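 note: absorbance read-out, biochemical high-throughput dose-response screen for MsrA inhibitors, confirmatory; recombinant bovine MsrA coupled to E. coli TrxB with NADPH and selenocystamine; potency is for inhibitors of MsrA activity on DMSO substrate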
[19] = molecular target: cAMP-dependent protein kinase catalytic subunit alpha (Homo sapiens, UniProt P17612); assay type: functional
[20] = system: Streptococcus sp. 'group A'; test: growth inhibition of control SK(-) GAS strain, dose response, counter-screen for streptokinase expression inhibitor project, luminescence, kanamycin, BacTiterGlo, confirmation (AID 1900); assay type: functional, organism-based
[21] = system: Streptococcus; test: Group A Streptococcus viability loss, dose response, counter-screen for streptokinase expression inhibitor project, luminescence, BacTiterGlo (AID 1915); assay type: functional, organism-based;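 note: potency for reduction of bacterial viability or growth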
[22] = molecular target: T4, Short transient receptor potential channel 4 (Mus musculus, UniProt Q9QUQ5); test: mouse TRPC4 channel activators, dose response, cell-based, HEK293 TRPC4/mu-opioid, Fluo-4 calcium (AID 434937); assay type: functional
T4 sequence (Q9QUQ5 whole entry): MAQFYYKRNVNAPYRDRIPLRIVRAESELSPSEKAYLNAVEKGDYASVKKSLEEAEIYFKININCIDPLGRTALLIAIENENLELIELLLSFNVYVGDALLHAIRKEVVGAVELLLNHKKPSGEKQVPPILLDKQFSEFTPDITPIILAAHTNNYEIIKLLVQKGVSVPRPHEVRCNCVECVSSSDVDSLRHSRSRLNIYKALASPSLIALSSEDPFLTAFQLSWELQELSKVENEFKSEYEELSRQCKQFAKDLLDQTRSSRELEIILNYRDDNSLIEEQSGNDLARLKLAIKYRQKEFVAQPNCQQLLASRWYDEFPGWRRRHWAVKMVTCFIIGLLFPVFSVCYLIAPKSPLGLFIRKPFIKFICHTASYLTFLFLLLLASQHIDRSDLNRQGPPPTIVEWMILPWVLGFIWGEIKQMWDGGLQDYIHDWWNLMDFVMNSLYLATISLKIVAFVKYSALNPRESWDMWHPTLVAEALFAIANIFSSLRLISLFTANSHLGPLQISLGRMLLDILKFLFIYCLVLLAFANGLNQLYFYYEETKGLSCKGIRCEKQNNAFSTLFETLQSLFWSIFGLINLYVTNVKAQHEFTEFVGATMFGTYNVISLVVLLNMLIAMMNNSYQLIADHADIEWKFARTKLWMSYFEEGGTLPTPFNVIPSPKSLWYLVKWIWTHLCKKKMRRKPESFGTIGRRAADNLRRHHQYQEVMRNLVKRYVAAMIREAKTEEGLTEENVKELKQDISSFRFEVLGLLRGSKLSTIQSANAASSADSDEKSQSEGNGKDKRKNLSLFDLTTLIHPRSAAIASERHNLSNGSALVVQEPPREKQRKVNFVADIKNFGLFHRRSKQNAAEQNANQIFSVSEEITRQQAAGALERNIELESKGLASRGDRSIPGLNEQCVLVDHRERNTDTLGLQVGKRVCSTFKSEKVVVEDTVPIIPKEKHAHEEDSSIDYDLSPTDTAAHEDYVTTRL

[23] = molecular target: DNA dC->dU-editing enzyme APOBEC-3G (Homo sapiens, UniProt Q9HC16); test: APOBEC3G deaminase inhibitors, SAR follow-up, biochemical, fluorescence, single-stranded DNA substrate (AID 602136); assay type: functional; details: read-out: IC50_Mean
[24] = molecular target: DNA dC->dU-editing enzyme APOBEC-3A (Homo sapiens, UniProt P31941); test: SAR analysis of small molecule inhibitors of APOBEC3A DNA Deaminase via a fluorescence-based single-stranded DNA deaminase assay.; assay type: functional; details: read-out: IC50_Mean
[25] = system: Vero; test: Vero cell cytotoxicity, cytotoxicity control for flavivirus capping enzyme inhibitors (AID 588742); assay type: functional; details: Chlorocebus sabaeus
[26] = molecular target: Genome polyprotein (dengue virus type 2, UniProt P29990); test: Dengue-2 NS5 methyltransferase inhibitors, primary screen, biochemical, confirmation dose response (AID 588689); assay type: functional
[27] = molecular target: Photoreceptor-specific nuclear receptor (Homo sapiens, UniProt Q9Y5X4); assay type: functional, cell-based;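 note: CHO-S cells with Gal4-NCOR and VP16-NR2E3 two-hybrid luciferase reporter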

Sequence of Serine/threonine-protein kinase pim-1 (P11309 whole entry): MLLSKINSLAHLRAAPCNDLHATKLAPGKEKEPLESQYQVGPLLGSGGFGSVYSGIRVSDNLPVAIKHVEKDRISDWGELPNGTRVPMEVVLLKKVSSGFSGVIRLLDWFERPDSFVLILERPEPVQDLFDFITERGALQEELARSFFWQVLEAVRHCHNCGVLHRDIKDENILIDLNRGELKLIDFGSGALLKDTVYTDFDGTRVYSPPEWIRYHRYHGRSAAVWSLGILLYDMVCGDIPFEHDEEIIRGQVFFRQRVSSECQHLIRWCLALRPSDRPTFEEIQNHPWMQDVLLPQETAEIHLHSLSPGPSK
Sequence of Cell division cycle 7-related protein kinase (O00311 whole entry): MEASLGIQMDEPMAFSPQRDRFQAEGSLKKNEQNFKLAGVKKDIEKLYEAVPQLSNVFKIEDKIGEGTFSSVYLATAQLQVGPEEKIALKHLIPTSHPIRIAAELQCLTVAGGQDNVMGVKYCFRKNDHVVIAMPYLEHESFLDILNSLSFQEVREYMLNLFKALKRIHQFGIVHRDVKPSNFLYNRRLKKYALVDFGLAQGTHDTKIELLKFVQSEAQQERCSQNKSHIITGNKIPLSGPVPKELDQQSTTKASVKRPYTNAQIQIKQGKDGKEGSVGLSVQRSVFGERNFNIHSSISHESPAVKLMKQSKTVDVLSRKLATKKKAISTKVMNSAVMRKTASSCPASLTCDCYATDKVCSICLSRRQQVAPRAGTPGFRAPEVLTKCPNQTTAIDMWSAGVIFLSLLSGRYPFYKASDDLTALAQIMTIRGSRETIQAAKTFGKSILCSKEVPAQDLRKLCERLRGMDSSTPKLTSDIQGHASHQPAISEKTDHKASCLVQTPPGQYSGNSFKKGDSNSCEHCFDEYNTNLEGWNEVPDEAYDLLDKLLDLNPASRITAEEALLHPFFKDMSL

Compound: Cc1ccccc1-c1c(-c2ccc3[nH]nc(C)c3c2)nnn1Cc1ccccc1
- Ki [1]: 0.251 µM (active)
- Ki [2]: 0.00251 µM (active)
- Ki [3]: 2.51 µM (active)
- Ki [4]: 0.158 µM (active)
- Ki [5]: > 10 µM (inactive)
- Ki [6]: 0.0126 µM (active)
- Ki [7]: 0.00794 µM (active)
- Ki [8]: 0.158 µM (active)

Compound: CC(C)(C)c1ccc(S(=O)(=O)N2CCSC2)cc1
- AC50 [9]: 37.1 µM (active)
- AC50 [10]: 31.3 µM (active)

Compound: OC(CN1CCN(C(c2ccccc2)c2ccccc2)CC1)c1ccccc1 (stereo not given)
- EC50 [11]: > 92.6 µM (inactive)
- EC50 [12]: > 92.6 µM (inactive)
- EC50 [13]: > 92.6 µM (inactive)
- IC50 [14]: > 100 µM (inactive)

Compound: CCOP(=S)(OCC)Oc1nc(Cl)n(C(C)C)n1
- AC50 [15]: 39.8 µM (inconclusive)

Compound: Cc1ccc(NC(=O)c2ccccc2Cl)c(Cl)c1
- AC50 [16]: 84.8 µM (active)

Compound: Cc1ccc(Nc2c([N+](=O)[O-])nn(-c3ccccc3)[n+]2[O-])c(C)c1
- EC50 [17]: 9.37 µM (active)
- IC50 [18]: 155 µM (inactive)

Compound: FC(F)(F)c1ccccc1CNc1nccc(-c2c[nH]c3ncccc23)n1
- Ki [1]: 0.501 µM (active)
- Ki [2]: 0.00126 µM (active)
- Ki [3]: 0.02 µM (active)
- Ki [4]: 0.01 µM (active)
- Ki [5]: 0.2 µM (active)
- Ki [6]: 0.0126 µM (active)
- Ki [19]: 0.0631 µM (active)
- Ki [8]: 0.02 µM (active)

Compound: CN1CCN(c2c(F)cc3c(=O)c(C(=O)O)cn4c3c2OCN4C)CC1 [MARBOFLOXACIN]
- EC50 [20]: 2.79 µM (active)
- EC50 [21]: 3.07 µM (active)
- AC50 [9]: 1.12 µM (active)
- AC50 [10]: 4.63 µM (active)

Compound: CCOC(=O)C1(CCOC)CCN(Cc2ccccc2-c2ccco2)CC1
- EC50 [22]: 0.299 µM (active)
- EC50 [11]: > 92.5 µM (inactive)
- EC50 [12]: > 92.5 µM (inactive)
- EC50 [13]: > 92.5 µM (inactive)

Compound: CC(NS(=O)(=O)c1cccc(Cl)c1)C(=O)Nc1ccc(-c2nc3ccccc3s2)cc1 (stereo not given)
- AC50 [16]: > 350 µM (inactive)

Compound: COCc1nnc(NC(=O)Cc2ccc(Cl)cc2)s1
- IC50 [23]: > 99 µM (inactive)
- IC50 [24]: > 99 µM (inactive)

Compound: Cc1ccc([C@@H]2CC=C(C(=O)O)[C@H](c3ccc(C(C)(C)C)cc3)N2S(=O)(=O)c2ccc(C)cc2)cc1
- CC50 [25]: > 40 µM (active)
- IC50 [26]: 39.8 µM (active)
- IC50 [27]: 5.74 µM (active)
